Publication PMC11284787, “Ligand-Directed Labeling of the Adenosine A1 Receptor in Living Cells” (Journal of Medicinal Chemistry, 2024)

What was measured:
SNAP-hA1AR = tested on: T1, SNAP-hA1AR; assay: Live-cell confocal microscopy of SNAP-hA1AR HEK293T cells; format: cell-based, human; conditions: for fluorescent labeling of SNAP-hA1AR at the plasma membrane: 125 nM 11 or 50 nM 12 (then MetTet-SulfoCy5) for 2 h; for labeling of SNAP-hA1AR after pretreatment with 10 μM DPCPX: 10 μM DPCPX pretreatment 30 min; for fluorescence intensity after 10 μM DPCPX added to prelabeled cells: prelabeled 2 h, then 10 μM DPCPX 1 h, P > 0.05
T1 construct: expressed in transfected cells; host or cells: HEK293T, transient transfection (FuGENE HD)
From the text: Having investigated the molecular pharmacology of 11 and 12 in a series of in vitro assays, we sought to apply the LD probes for studying A1AR localization and dynamics in living cells. To this end, LD probes 11 and 12 were initially used in confocal microscopy studies to test their ability to label and allow visualization of the SNAP-hA1AR in living HEK293T cells (Figure 6). […] With both probes, the fluorescence labeling colocalized with SNAP-hA1AR labeled with AF488 (Figure 6A,C top frames).
Cells were labeled with membrane impermeable SNAP-AF488 for 30 min prior to treatment with 11 and 12 for 2 h, respectively, with the latter followed by the addition of 1 μM methyltetrazine (Met-Tet) SulfoCy5 for 5 min prior to the acquisition of the single equatorial images. […] For all the conditions, left-hand frames represent the SulfoCy5 channel (magenta), middle frames are the SNAP-hA1AR AF488 (green) channel, and right-hand frames represent merged images of both channels, with white indicating the overlap of magenta and green. (B, E) Fluorescence intensity plots (16-bit) were generated for both SulfoCy5 and AF488 channels by hand drawing the region of interest (ROI) in images obtained as indicated in (A) and (C) using ImageJ (FIJI). Data points represent membrane fluorescence signals measured from ROI drawn in each cell, and error bars represent mean ± standard deviation (SD). Images are representative of images obtained from three independent experiments from which 72 to 83 cells were analyzed. Scale bars are = 13 μm for (A) and 10 μm for (C). (D) Schematic representation of the biorthogonal IEDDA reaction between the TCO group (covalently attached to the hA1AR by ligand-directed chemistry) and SulfoCy5-conjugated methyltetrazine (MetTet-SulfoCy5). Following the click IEDDA reaction, the formation of the 4,5-dihydropyridazine cycloadduct increases the fluorescence intensity of the fluorophore conjugated to the tetrazine moiety. […]
using a Zeiss LSM880 confocal microscope as described in the confocal imaging […]
HEK293T cells were seeded in 8-well plates (Nunc Lab-Tek, Thermo Fischer Scientific), pre-coated with Poly-D-Lysine, at 20,000 cells/well in DMEM/10% FCS.
24 h post seeding, cells were transiently transfected with human SNAP-A1. Transient transfections were carried out following manufacturer’s protocol: used FuGENE HD at 3:1 ratio of reagent to cDNA with a total of 300 ng cDNA per well. Transfection solutions were made up in Gibco Opti-MEM (Thermo Fischer Scientific), incubated at RT for 5 min and added as 11 µL per well. Cells were incubated for additional 24 h at 37 OC, 5% CO2. On the day of the experiment medium was removed and the cells were labelled for 30 min at 37 °C with 0.2 µM SNAP-surface AF488 in SFM. After washing twice with SFM the cells were treated with or without 10 µM competitive A 1AR- […]
Following the incubation step, the ligand-directed probe under investigation (SulfoCy5 or PEG-TCO) (11 or 12) was added to the appropriate wells at the required concentrations and incubated for 2 h. After that time, cells were washed 4x with warm HBSS, followed by the addition of 300 µL warm HBSS and imaged. For click-chemistry reactions, after washing 4x with warm HBSS, cells pre-labelled with the trans-cyclooctene-conjugated 12 (PEG-TCO) at 50 nM were subsequently treated with 1 µM Methyl-TetrazineSulfoCy5 (Lumiprobe, Germany) for 5 min at RT in the dark. Cells were washed 2x with warm HBSS and imaged. When […]
1 h before imaging. […]
Live cell imaging was performed using either a Zeiss LSM 710 or LSM880 laser scanning confocal microscope fitted with a Zeiss C-Apochromat 40 × 1.2 NA water immersion objective. A 633 nm HeNe laser was used for the excitation of SulfoCy5 fluorophore and a 488/561/633 dichroic, and the emission was detected between 634 […]
and 755 nm. A 488 nm […] laser was used to excite SNAP-AF488 and the emission was detected between 493 and 586 nm. The pinhole diameter (1 Airy Unit; 1.1 μm […]

NL-hA3AR = target: T2, NL-hA3AR (Homo sapiens, UniProt P0DMS8); assay: cell-based; format: binding; conditions: CA200645 (25 nM) tracer, HEK293T cells, mean ± SEM; read-out: affinity values pKi, NL-hA3AR (converted)
T2 construct: expressed in transfected cells
T2 sequence (P0DMS8 1-318): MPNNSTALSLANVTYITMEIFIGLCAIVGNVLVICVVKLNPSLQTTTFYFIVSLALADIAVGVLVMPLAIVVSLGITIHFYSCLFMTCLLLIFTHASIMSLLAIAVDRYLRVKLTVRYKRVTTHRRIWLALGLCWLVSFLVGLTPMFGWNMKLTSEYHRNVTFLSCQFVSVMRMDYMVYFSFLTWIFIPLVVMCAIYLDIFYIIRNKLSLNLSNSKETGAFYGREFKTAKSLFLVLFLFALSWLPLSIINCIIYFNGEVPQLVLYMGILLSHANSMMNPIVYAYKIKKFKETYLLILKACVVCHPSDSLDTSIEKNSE

Structure (SMILES)	fluorescent labeling of SNAP-hA1AR at the plasma membrane (SNAP-hA1AR)	labeling of SNAP-hA1AR after pretreatment with 10 μM DPCPX (SNAP-hA1AR)	fluorescence intensity after 10 μM DPCPX added to prelabeled cells (SNAP-hA1AR)	Ki (NL-hA3AR) [µM]
CCCCn1c(=O)c2[nH]c(C34CCC(C(=O)NCCNC(=O)CCNC(=O)c5ccc(OC(=O)CCCCC[N+]6=C(/C=C/C=C/C=C7/N(C)c8ccc(S(=O)(=O)O)cc8C7(C)C)C(C)(C)c7cc(S(=O)(=O)[O-])ccc76)c(F)c5)(CC3)CC4)nc2n(CCCC)c1=O [Compound 11, 1-(6-(4-((3-((2-(4-(1,3-Dibutyl-2,6-dioxo-2,3,6,7-tetrahydro-1H-purin-8-yl)bicyclo[2.2.2]octane-1-carboxamido)ethyl)amino)-3-oxopropyl)carbamoyl)-2-fluorophenoxy)-6-oxohexyl)-3,3-dimethyl-2-((1E,3E)-5-((E)-1,3,3-trimethyl-5-sulfoindolin-2-ylidene)penta-1,3-dien-1-yl)-3H-indol-1-ium-5-sulfonate]	Clear fluorescent labeling	prevented the labeling	did not change their fluorescence intensities	–
CCCCn1c(=O)c2[nH]c(C34CCC(C(=O)NCCNC(=O)CCNC(=O)c5ccc(OC(=O)CCC(=O)NCCOCCOCCNC(=O)O[C@H]6CC/C=C/CCC6)c(F)c5)(CC3)CC4)nc2n(CCCC)c1=O [Compound 12, 4-((3-((2-(4-(1,3-Dibutyl-2,6-dioxo-2,3,6,7-tetrahydro-1H-purin-8-yl)bicyclo[2.2.2]octane-1-carboxamido)ethyl)amino)-3-oxopropyl)carbamoyl)-2-fluorophenyl (R,E)-1-(Cyclooct-4-en-1-yloxy)-1,12-dioxo-5,8-dioxa-2,11-diazapentadecan-15-oate]	Clear fluorescent labeling	prevented the labeling	did not change their fluorescence intensities	> 10
